According to PubChem BioAssay (NCI):
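In this assay, cells in 96-well plates receive the compound at five concentrations for 48 hours. Endpoints are linearly interpolated between the surrounding concentrations. At the GI50, growth is halved. At the TGI there is no net growth.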

Assays:
Test in all cases: growth of human tumour cells (NCI), 48 h
[1] = system: NCI-H460 lung
[2] = system: A498 renal
[3] = system: OVCAR-5 ovarian
[4] = system: UACC-62 melanoma
[5] = system: ACHN renal
[6] = system: DU-145 prostate
[7] = system: T-47D breast
[8] = system: KM12 colon
[9] = system: UO-31 renal
[10] = system: HOP-92 NSCLC
[11] = system: IGROV1 ovarian
[12] = system: OVCAR-8 ovarian
[13] = system: CAKI-1 renal
[14] = system: SK-MEL-2 melanoma
[15] = system: HCT-15 colon
[16] = system: 786-0 renal
[17] = system: SK-OV-3 ovarian
[18] = system: LOX IMVI melanoma
[19] = system: SF-539 CNS
[20] = system: NCI-H226 lung
[21] = system: MDA-MB-231 breast
[22] = system: M14 melanoma
[23] = system: RXF 393 renal
[24] = system: OVCAR-3 ovarian
[25] = system: BT-549 breast
[26] = system: SR leukemia
[27] = system: SNB-75 CNS
[28] = system: HT29 colon
[29] = system: HCT-116 colon
[30] = system: MOLT-4 leukemia
[31] = system: SNB-19 CNS
[32] = system: SK-MEL-5 melanoma
[33] = system: MALME-3M melanoma
[34] = system: HL-60(TB) leukemia
[35] = system: HS 578T breast
[36] = system: NCI/ADR-RES ovarian
[37] = system: OVCAR-4 ovarian
[38] = system: MDA-MB-435
[39] = system: K-562 leukemia
[40] = system: SF-295 CNS
[41] = system: COLO 205 colon
[42] = system: SN12C renal
[43] = system: SF-268 CNS
[44] = system: EKVX NSCLC
[45] = system: CCRF-CEM leukemia
[46] = system: NCI-H23 lung
[47] = system: UACC-257 melanoma
[48] = system: TK-10 renal
[49] = system: MCF7 breast
[50] = system: SK-MEL-28 melanoma
[51] = system: NCI-H522 lung
[52] = system: SW-620 colon
[53] = system: A549 NSCLC
[54] = system: U251 CNS
[55] = system: PC-3 prostate

With O=C1C[C@@H]2/C(=C(O)\C=C\c3ccccc3)C(=O)C=C[C@@H]2O1 the GI50 [1] was 2230 nM, the TGI [1] was 7180 nM and the GI50 [2] was 10900 nM. It also gave a TGI [2] of 23100 nM, a GI50 [3] of 1930 nM and a TGI [3] of 3840 nM. The GI50 [4] was 3000 nM, the TGI [4] was 12200 nM and the GI50 [5] was 1560 nM. For the same compound, the TGI [5] was 3290 nM, the GI50 [6] was 515 nM and the TGI [6] was 1930 nM. For the same compound, the GI50 [7] was 905 nM, the TGI [7] was 4550 nM and the GI50 [8] was 505 nM. The TGI [8] was 1820 nM, the GI50 [9] was 878 nM and the TGI [9] was 2200 nM. It also gave a GI50 [10] of 1590 nM, a TGI [10] of 3210 nM and a GI50 [11] of 385 nM. The TGI [11] was 1560 nM, the GI50 [12] was 3060 nM and the TGI [12] was 12300 nM. It also gave a GI50 [13] of 2350 nM, a TGI [13] of 11800 nM and a GI50 [14] of 1770 nM. It also gave a TGI [14] of 3560 nM, a GI50 [15] of 1300 nM and a TGI [15] of 3690 nM. It also gave a GI50 [16] of 1740 nM, a TGI [16] of 3490 nM and a GI50 [17] of 4860 nM. The TGI [17] was 16900 nM, the GI50 [18] was 214 nM and the TGI [18] was 485 nM. It also gave a GI50 [19] of 2300 nM, a TGI [19] of 8350 nM and a GI50 [20] of 1940 nM. For the same compound, the TGI [20] was 4450 nM, the GI50 [21] was 2130 nM and the TGI [21] was 4210 nM. It also gave a GI50 [22] of 435 nM, a TGI [22] of 2630 nM and a GI50 [23] of 1470 nM. It also gave a TGI [23] of 2830 nM, a GI50 [24] of 497 nM and a TGI [24] of 1820 nM. It also gave a GI50 [25] of 2840 nM, a TGI [25] of 8450 nM and a GI50 [26] of 464 nM. The TGI [26] was 17000 nM, the GI50 [27] was 2070 nM and the TGI [27] was 5780 nM. The GI50 [28] was 844 nM, the TGI [28] was 2400 nM and the GI50 [29] was 382 nM. It also gave a TGI [29] of 1600 nM, a GI50 [30] of 1850 nM and a TGI [30] of 5770 nM. The GI50 [31] was 9030 nM, the TGI [31] was 22600 nM and the GI50 [32] was 2010 nM. The TGI [32] was 4820 nM, the GI50 [33] was 1420 nM and the TGI [33] was 3000 nM. The GI50 [34] was 1570 nM, the TGI [34] was 5930 nM and the GI50 [35] was 5270 nM. For the same compound, the TGI [35] was 60500 nM, the GI50 [36] was 690 nM and the TGI [36] was 3400 nM. The GI50 [37] was 3640 nM, the TGI [37] was 13000 nM and the GI50 [38] was 1610 nM. For the same compound, the TGI [38] was 3490 nM, the GI50 [39] was 449 nM and the TGI [39] was > 100000 nM. It also gave a GI50 [40] of 3440 nM, a TGI [40] of 13700 nM and a GI50 [41] of 992 nM. For the same compound, the TGI [41] was 2620 nM, the GI50 [42] was 2150 nM and the TGI [42] was 5640 nM. It also gave a GI50 [43] of 2090 nM, a TGI [43] of 6140 nM and a GI50 [44] of 13000 nM. The TGI [44] was 26000 nM, the GI50 [45] was 447 nM and the TGI [45] was 2890 nM. The GI50 [46] was 1780 nM, the TGI [46] was 3950 nM and the GI50 [47] was 1830 nM. It also gave a TGI [47] of 3900 nM, a GI50 [48] of 2630 nM and a TGI [48] of 7590 nM. For the same compound, the GI50 [49] was 830 nM, the TGI [49] was 13500 nM and the GI50 [50] was 2330 nM. The TGI [50] was 6560 nM, the GI50 [51] was 206 nM and the TGI [51] was 615 nM. The GI50 [52] was 485 nM, the TGI [52] was 4940 nM and the GI50 [53] was 3510 nM. It also gave a TGI [53] of 12800 nM, a GI50 [54] of 1560 nM and a TGI [54] of 3410 nM. The GI50 [55] was 1950 nM and the TGI [55] was 4900 nM.
